US20240067632A1, “WEE1 Degrading Compounds and Uses Thereof” (Bristol-Myers Squibb Company, priority 2022, published 2024)
Where two headings read alike, the source gives them in different places.

Columns and labels:
WEE1 = biological target: T1, WEE1 (Homo sapiens, UniProt P30291+Q96SW2); assay: WEE1-ePL degradation assay (LentiX-WEE1-ePL-GSPT1-ND cells, InCELL Hunter luminescence, 4 h); format: cell-based; conditions: 293T-LentiX WEE1-ePL cells; for DC50: read-out: 293T-LentiX WEE1-ePL Degradation 4 hr (EC50)
T1 construct: C-terminal ePL-tagged (DiscoverX, Fremont, CA) full-length WEE1 expression construct; expressed in transfected cells; host or cells: LentiX-HEK293T (Invitrogen), lentiviral transduction; co-expressing GSPT1-GN (G576N, lacking the first 158 amino acids)
Outline: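 Degradation EC50 was fitted by a four-parameter logistic model, with the upper limit taken from DMSO wells. Luminescence was read with InCELL Hunter reagent after 30 min at room temperature, following a 4 h, 37° C exposure of 2500 cells/well. Cells were LentiX-HEK293T carrying ePL-tagged full-length WEE1, dosed in 10 points (3-fold) from 1 or 10 uM.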

MKN45 cells = assay: MKN45 cell proliferation assay (Cell-Titer-Glo, 120 h); format: cell-based; conditions: for EC50: Homo sapiens, MKN-45, 120 h, Cell-Titer-Glo, read-out: MKN45 Cell Prolif. 120 hr (EC50); for MKN45 Cell Prolif. 120 hr (Ymin-Obs): minimal percent of DMSO control observed in the concentrations tested
Outline: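 Cells seeded at 400/well onto pre-printed 10-point half-log dilutions (top 1 or 10 uM, 0.1% DMSO final), in triplicate, and grown 120 h at 37 C. Viability by Cell-Titer-Glo luminescence, blank-subtracted and normalised to DMSO; EC50 from four-parameter logistic fit, with observed minimal % of control recorded as Ymin-obs.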

[1] = lower limit of the fit (0 = luciferase inhibitor, Ymax = DMSO control)
[2] = lower limit of the fit (Ymin=0 luciferase inhibitor, Ymax DMSO control)

Row | SMILES | 293T-LentiX WEE1-ePL Degradation 4 hr (Ymin) (WEE1; [1]) | DC50 (WEE1) [nM] | EC50 (MKN45 cells; growth inhibition) [nM] | MKN45 Cell Prolif. 120 hr (Ymin-Obs) (MKN45 cells) | 293T-LentiX WEE1-ePL Degradation 4 hr (Ymin) (WEE1; [2]) | EC50 (MKN45 cells) [nM]
1 | CC#Cc1ncc2cc(CN3CC[C@H](Oc4ccc5c(c4)CN(C4CCC(=O)NC4=O)C5=O)C3)ccc2n1 (stereo partly drawn) [3-(1-oxo-5-{[(3S)-1-{[2-(prop-1-yn-1-yl)quinazolin-6-yl]methyl}pyrrolidin-3-yl]oxy}-2,3-dihydro-1H-isoindol-2-yl)piperidine-2,6-dione] | 29 | 38.9 | 51.6 | 8.56 | – | –
2 | COC[C@@H]1CC[C@H](c2ccc3cc(CN4CC[C@H](Oc5ccc6c(c5)CN(C5CCC(=O)NC5=O)C6=O)C4)ccc3n2)C1 (stereo partly drawn) [3-(5-{[(3S)-1-({2-[(1S,3R)-3-(methoxymethyl)cyclopentyl]quinolin-6-yl}methyl)pyrrolidin-3-yl]oxy}-1-oxo-2,3-dihydro-1H-isoindol-2-yl)piperidine-2,6-dione] | – | 5.9 | – | 8.786 | 32.37 | 2.56
3 | [2H]c1nc2ccc(CN3CCC(Oc4ccc5c(c4)CN(C4CCC(=O)NC4=O)C5=O)C3)cc2cc1F [3-(5-{[(3S)-1-{[3-fluoro(2-^2H)quinolin-6-yl]methyl}pyrrolidin-3-yl]oxy}-1-oxo-2,3-dihydro-1H-isoindol-2-yl)piperidine-2,6-dione] | 35 | 3.57 | 94.9 | 21.68 | – | –
4 | Cc1cc(F)c2cc(CN3CC[C@H](Oc4ccc5c(c4)CN(C4CCC(=O)NC4=O)C5=O)C3)ccc2n1 (stereo partly drawn) [3-(5-{[(3S)-1-[(4-fluoro-2-methylquinolin-6-yl)methyl]pyrrolidin-3-yl]oxy}-1-oxo-2,3-dihydro-1H-isoindol-2-yl)piperidine-2,6-dione] | 69.445 | 22.7 | ≥ 10000 | 24.82 | – | –
5 | C[C@@H]1CC(c2ccc3cc(CN4CC[C@H](Oc5ccc6c(c5)CN(C5CCC(=O)NC5=O)C6=O)C4)ccc3n2)C[C@@H](C)O1 (stereo partly drawn) [3-(5-{[(3S)-1-({2-[(2R,6R)-2,6-dimethyloxan-4-yl]quinolin-6-yl}methyl)pyrrolidin-3-yl]oxy}-1-oxo-2,3-dihydro-1H-isoindol-2-yl)piperidine-2,6-dione] | – | 5.2 | – | 10.09 | 25.33 | 5.09
6 | O=C1CCC(N2Cc3cc(O[C@H]4CCN(Cc5ccc6nc(C78CCOCC7C8)ccc6c5)C4)ccc3C2=O)C(=O)N1 (stereo partly drawn) [3-(5-{[(3S)-1-[(2-{3-oxabicyclo[4.1.0]heptan-6-yl}quinolin-6-yl)methyl]pyrrolidin-3-yl]oxy}-1-oxo-2,3-dihydro-1H-isoindol-2-yl)piperidine-2,6-dione] | 33.33 | 3.1 | 2.16 | 9.735 | – | –
7 | COC[C@@H]1CCCC[C@H]1c1ccc2cc(CN3CC[C@H](Oc4ccc5c(c4)CN(C4CCC(=O)NC4=O)C5=O)C3)ccc2n1 (stereo partly drawn) [3-(5-{[(3S)-1-({2-[(1R,2R)-2-(methoxymethyl)cyclohexyl]quinolin-6-yl}methyl)pyrrolidin-3-yl]oxy}-1-oxo-2,3-dihydro-1H-isoindol-2-yl)piperidine-2,6-dione] | – | 3.65 | – | 12.91 | 20.92 | 2.53
8 | O=C1CCC(N2Cc3cc(O[C@H]4CCN(Cc5ccc6nc(N7C[C@H]8C[C@@H]7CO8)ncc6c5)C4)ccc3C2=O)C(=O)N1 (stereo partly drawn) [3-(5-{[(3S)-1-({2-[(1R,4R)-2-oxa-5-azabicyclo[2.2.1]heptan-5-yl]quinazolin-6-yl}methyl)pyrrolidin-3-yl]oxy}-1-oxo-2,3-dihydro-1H-isoindol-2-yl)piperidine-2,6-dione] | 39 | 80.1 | 76.6 | 16.57 | – | –
9 | CNc1cnc2ccc(CN3CC[C@H](Oc4ccc5c(c4)CN(C4CCC(=O)NC4=O)C5=O)C3)cc2c1 (stereo partly drawn) [3-(5-{[(3S)-1-{[3-(methylamino)quinolin-6-yl]methyl}pyrrolidin-3-yl]oxy}-1-oxo-2,3-dihydro-1H-isoindol-2-yl)piperidine-2,6-dione] | 34 | 18.1 | 204 | 16.86 | – | –
10 | CN1CCC(c2ccc3cc(CN4CC[C@H](Oc5ccc6c(c5)CN(C5CCC(=O)NC5=O)C6=O)C4)ccc3n2)CC1 (stereo partly drawn) [3-(5-{[(3S)-1-{[2-(1-methylpiperidin-4-yl)quinolin-6-yl]methyl}pyrrolidin-3-yl]oxy}-1-oxo-2,3-dihydro-1H-isoindol-2-yl)piperidine-2,6-dione] | 30 | 28.6 | 21.7 | 7.273 | – | –
11 | O=C1CCC(N2Cc3cc(O[C@H]4CCN(Cc5ccc6nc(N7CCCC78CCOCC8)ncc6c5)C4)ccc3C2=O)C(=O)N1 (stereo partly drawn) [3-(5-{[(3S)-1-[(2-{8-oxa-1-azaspiro[4.5]decan-1-yl}quinazolin-6-yl)methyl]pyrrolidin-3-yl]oxy}-1-oxo-2,3-dihydro-1H-isoindol-2-yl)piperidine-2,6-dione] | 47 | 18.1 | 14.1 | 20.87 | – | –
12 | CO[C@H]1CC[C@H](c2ccc3cc(CN4CC[C@H](Oc5ccc6c(c5)CN(C5CCC(=O)NC5=O)C6=O)C4)ccc3n2)C1 (stereo partly drawn) [3-(5-{[(3S)-1-({2-[(1S,3S)-3-methoxycyclopentyl]quinolin-6-yl}methyl)pyrrolidin-3-yl]oxy}-1-oxo-2,3-dihydro-1H-isoindol-2-yl)piperidine-2,6-dione] | 32.5 | 6.19 | 4.8 | 8.927 | – | –
13 | O=C1CCC(N2Cc3cc(O[C@H]4CCN(Cc5ccc6nc(C7CC7)ccc6c5)C4)ccc3C2=O)C(=O)N1 (stereo partly drawn) [3-(5-{[(3S)-1-[(2-cyclopropylquinolin-6-yl)methyl]pyrrolidin-3-yl]oxy}-1-oxo-2,3-dihydro-1H-isoindol-2-yl)piperidine-2,6-dione] | 34.33 | 2.21 | 6.03 | 12.12 | – | –
14 | CC(C)(C)c1ccc2cc(CN3CC[C@H](Oc4ccc5c(c4)CN(C4CCC(=O)NC4=O)C5=O)C3)ccc2n1 (stereo partly drawn) [3-(5-{[(3S)-1-[(2-tert-butylquinolin-6-yl)methyl]pyrrolidin-3-yl]oxy}-1-oxo-2,3-dihydro-1H-isoindol-2-yl)piperidine-2,6-dione] | 29 | 2.8 | 9.2 | 11.88 | – | –
15 | O=C1CCC(N2Cc3cc(O[C@H]4CCN(Cc5ccc6nc(N7CCC[C@@]78CCOC8)ncc6c5)C4)ccc3C2=O)C(=O)N1 (stereo partly drawn) [3-(5-{[(3S)-1-({2-[(5S)-7-oxa-1-azaspiro[4.4]nonan-1-yl]quinazolin-6-yl}methyl)pyrrolidin-3-yl]oxy}-1-oxo-2,3-dihydro-1H-isoindol-2-yl)piperidine-2,6-dione] | 34.08 | 12.6 | 9.38 | 9.64 | – | –
16 | O=C1CCC(N2Cc3cc(O[C@H]4CCN(Cc5ccc6nc(N7C[C@H]8COC[C@H]8C7)ccc6c5)C4)ccc3C2=O)C(=O)N1 (stereo partly drawn) [3-(5-{[(3S)-1-({2-[(3aR,6aS)-hexahydro-1H-furo[3,4-c]pyrrol-5-yl]quinolin-6-yl}methyl)pyrrolidin-3-yl]oxy}-1-oxo-2,3-dihydro-1H-isoindol-2-yl)piperidine-2,6-dione] | 39 | 3.61 | 6.4 | 14.73 | – | –
17 | COC[C@H]1CCCC[C@@H]1c1ccc2cc(CN3CC[C@H](Oc4ccc5c(c4)CN(C4CCC(=O)NC4=O)C5=O)C3)ccc2n1 (stereo partly drawn) [3-(5-{[(3S)-1-({2-[(1S,2S)-2-(methoxymethyl)cyclohexyl]quinolin-6-yl}methyl)pyrrolidin-3-yl]oxy}-1-oxo-2,3-dihydro-1H-isoindol-2-yl)piperidine-2,6-dione] | – | 3.03 | – | 11.37 | 21.7 | 1.43
18 | O=C1CCC(N2Cc3cc(O[C@H]4CCN(Cc5ccc6nc(COC7CCOCC7)ccc6c5)C4)ccc3C2=O)C(=O)N1 (stereo partly drawn) [3-(5-{[(3S)-1-({2-[(oxan-4-yloxy)methyl]quinolin-6-yl}methyl)pyrrolidin-3-yl]oxy}-1-oxo-2,3-dihydro-1H-isoindol-2-yl)piperidine-2,6-dione] | 33 | 4.73 | 2.19 | 7.295 | – | –
19 | O=C1CC[C@H](N2Cc3cc(O[C@H]4CCN(Cc5cc(F)c6nc(N7CCOCC7)ncc6c5)C4)ccc3C2=O)C(=O)N1 [(3S)-3-(5-{[(3S)-1-{[8-fluoro-2-(morpholin-4-yl)quinazolin-6-yl]methyl}pyrrolidin-3-yl]oxy}-1-oxo-2,3-dihydro-1H-isoindol-2-yl)piperidine-2,6-dione] | – | 3.13 | – | 10.25 | 32.63 | 7.59
